The assay has as its system HTLV-1. Briefly: Inhibition of HTLV-1: Tax-1 protein expression by western blotting in HUT102 cells. The note with it: HUT102 (HTLV-1 chronically infected) cells, 10 μM daily for three days; western blot, normalised by tubulin, related to DMSO treated cells; triplicate. The class given is cell-based, Human T-lymphotropic virus (HTLV). On the procedure: To determine whether the compounds described above could act as HTLV inhibitors, a screen was performed on HUT102 (HTLV-1 chronically infected) cells.
Cells were plated at a density of 150 000 cells per well in 96 wells plates and treated daily with 10 μM of compounds for three days.
Cells were then harvested and an aliquot was used for cytotoxicity evaluation with Cell Titer (Promega).
The remaining cells was washed in phosphate buffer saline (PBS) and lysed for protein quantification with Bradford Assay (Sigma).
Then, HTLV Tax-1 protein expression was evaluated from 30 μg of total proteins by western blotting analysis.
Tax-1 expression was normalised by tubulin expression and related to control (DMSO treated) cells. Each compound was tested in triplicate.

The source of these data is patent publication US9827237B2, “Compounds useful for treating diseases caused by retroviruses” (ABIVAX, priority 2013, dated 2017).

On to `COc1ccc(Nc2ccc3c(N4CCN(C)CC4)ccnc3c2)cc1` [Compound 166, N-(4-methoxyphenyl)-4-(4-methylpiperazin-1-yl)quinolin-7-amine], for which the “reduced Tax-1 expression when compared to control” value is given as 80%.
